# Counter-ions that a name gives are not always drawn. Like-named read-outs stand apart in the source and are kept apart here.
# What was measured:
# GCN2 kinase = GCN2 kinase (Homo sapiens, UniProt Q9P2K8); test: GCN2 enzyme inhibition assay (Transcreener ADP2 fluorescence polarization); assay type: biochemical; details: 280 μM ATP
# How it was run: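 FP detection of ADP (antibody plus Alexa633 tracer) after a 1 h, 25 °C kinase reaction. Enzyme 4 nM, ATP 280 μM, (RS)7 peptide 200 μM, Tris pH 7.5 buffer with MgCl2 and DTT. Percent inhibition fitted by non-linear tight-binding algorithm for IC50 and Ki(app).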
# [1] = target: intracellular GCN2 (phosphorylation of the GCN2 substrate eIF2α) (Homo sapiens, UniProt Q9P2K8); test: GCN2 cellular inhibition assay (AlphaScreen SureFire P-eIF2α Ser51, borrelidin-treated U2OS cells); assay type: cell-based
# Chain of intracellular GCN2 (phosphorylation of the GCN2 substrate eIF2α) (Q9P2K8 whole entry): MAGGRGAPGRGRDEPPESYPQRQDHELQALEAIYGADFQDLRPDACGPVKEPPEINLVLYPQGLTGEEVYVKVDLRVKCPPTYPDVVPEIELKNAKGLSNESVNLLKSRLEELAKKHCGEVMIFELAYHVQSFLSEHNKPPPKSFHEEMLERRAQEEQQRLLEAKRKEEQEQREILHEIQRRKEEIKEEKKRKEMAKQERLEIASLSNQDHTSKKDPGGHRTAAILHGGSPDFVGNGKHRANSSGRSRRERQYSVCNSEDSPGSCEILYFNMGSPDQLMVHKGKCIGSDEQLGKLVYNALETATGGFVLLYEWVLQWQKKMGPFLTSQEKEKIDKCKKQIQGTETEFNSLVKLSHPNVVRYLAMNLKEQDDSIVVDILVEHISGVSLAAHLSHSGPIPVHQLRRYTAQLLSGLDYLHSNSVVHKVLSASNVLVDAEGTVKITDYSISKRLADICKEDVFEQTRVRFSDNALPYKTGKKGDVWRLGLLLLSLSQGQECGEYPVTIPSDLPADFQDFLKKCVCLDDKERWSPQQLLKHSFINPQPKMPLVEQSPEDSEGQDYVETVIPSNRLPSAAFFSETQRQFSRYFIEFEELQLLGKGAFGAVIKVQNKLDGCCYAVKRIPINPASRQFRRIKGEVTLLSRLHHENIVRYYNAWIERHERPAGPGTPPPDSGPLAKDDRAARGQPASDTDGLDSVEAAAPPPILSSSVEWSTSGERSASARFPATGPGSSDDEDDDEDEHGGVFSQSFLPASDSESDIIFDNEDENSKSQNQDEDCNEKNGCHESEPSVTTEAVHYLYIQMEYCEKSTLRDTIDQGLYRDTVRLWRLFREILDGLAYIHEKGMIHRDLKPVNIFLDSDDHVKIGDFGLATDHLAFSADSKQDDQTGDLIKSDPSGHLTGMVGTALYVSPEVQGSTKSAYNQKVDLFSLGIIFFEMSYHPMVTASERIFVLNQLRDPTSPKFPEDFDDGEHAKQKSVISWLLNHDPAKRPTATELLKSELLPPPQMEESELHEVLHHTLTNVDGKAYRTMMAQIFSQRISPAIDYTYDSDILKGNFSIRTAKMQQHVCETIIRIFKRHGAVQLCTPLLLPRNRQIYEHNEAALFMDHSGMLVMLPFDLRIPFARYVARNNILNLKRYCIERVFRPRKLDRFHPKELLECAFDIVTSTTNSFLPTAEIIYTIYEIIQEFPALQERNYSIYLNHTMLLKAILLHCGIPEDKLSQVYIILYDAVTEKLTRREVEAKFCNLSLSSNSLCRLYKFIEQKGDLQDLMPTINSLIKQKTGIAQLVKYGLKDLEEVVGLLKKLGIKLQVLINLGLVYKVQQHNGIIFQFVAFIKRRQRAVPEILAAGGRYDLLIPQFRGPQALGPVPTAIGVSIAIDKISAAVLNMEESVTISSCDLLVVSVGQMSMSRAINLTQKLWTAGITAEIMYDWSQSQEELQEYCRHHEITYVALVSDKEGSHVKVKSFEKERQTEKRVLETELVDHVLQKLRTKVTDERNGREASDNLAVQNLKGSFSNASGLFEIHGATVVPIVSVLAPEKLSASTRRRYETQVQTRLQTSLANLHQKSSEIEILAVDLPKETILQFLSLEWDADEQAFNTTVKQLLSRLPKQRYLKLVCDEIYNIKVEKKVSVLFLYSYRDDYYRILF
# How it was run: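 Read-out: AlphaScreen SureFire phospho-eIF2α (Ser51) signal in U2OS lysates. Cells get 4-fold compound dilutions (top 40 μM final) plus 10 μM borrelidin, 1 h, 37 °C. Percent inhibition is relative to borrelidin-alone controls.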
# [2] = compounds of Formula II, 4 nM GCN2 kinase
# [3] = compounds of Formula II, biomarker assay, phosphorylated eIF2α Ser51 in borrelidin-treated U2OS cells
# [4] = Enzyme activity for compounds of Formula IV, Ki(app), 25° C.
# [5] = compounds of Formula IV, biomarker assay, phosphorylated eIF2α Ser51 in borrelidin-treated U2OS cells
# Chain of GCN2 kinase (Q9P2K8 whole entry): as above
Ki (GCN2 kinase; [2]) [µM],"IC50 [1, 3] [µM]",Ki (GCN2 kinase; [4]) [µM],"IC50 [1, 5] [µM]",SMILES,further results
,,0.1 to 1,> 5,"CC1CC(CS(C)(=N)=O)C(C)N(c2ccnc(-c3cnc4cnc(C(F)F)cn34)n2)C1 (single isomer, unassigned) [IV-368, ((1-(2-(6-(Difluoromethyl)imidazo[1,2-a]pyrazin-3-yl)pyrimidin-4-yl)-2,5-dimethylpiperidin-3-yl)methyl)(imino)(methyl)-λ^6-sulfanone]",
,,0.01 to 0.1,0.5 to 5,"FC(F)(F)c1cn2c(-c3nccc(N4CCC(c5c[nH]nc5C(F)(F)F)C4)n3)cnc2cn1 (single isomer, unassigned) [IV-628, 6-(Trifluoromethyl)-3-(4-(3-(3-(trifluoromethyl)-1H-pyrazol-4-yl)pyrrolidin-1-yl)pyrimidin-2-yl)imidazo[1,2-a]pyrazine]",
,,0.01 to 0.1,0.5 to 5,"Cc1n[nH]c(C)c1C1CN(c2ccnc(-c3cnc4cnc(C(F)(F)F)cn34)n2)CC(C)N1 (single isomer, unassigned) [IV-465, 3-(4-(3-(3,5-Dimethyl-1H-pyrazol-4-yl)-5-methylpiperazin-1-yl)pyrimidin-2-yl)-6-(trifluoromethyl)imidazo[1,2-a]pyrazine]",
,,0.01 to 0.1,0.5 to 5,"CC1CN(c2ccnc(-c3cnc4cnc(Cl)cn34)n2)CC(CNS(C)(=O)=O)C1(F)F (stereo not shown) [IV-5, N-((1-(2-(6-Chloroimidazo[1,2-a]pyrazin-3-yl)pyrimidin-4-yl)-4,4-difluoro-5-methylpiperidin-3-yl)methyl)methanesulfonamide]",
,,< 0.01,0.5 to 5,"FC(F)(F)c1cn2c(-c3nccc(N4CCCC(c5c[nH]c(Cl)n5)C4)n3)cnc2cn1 (stereo not shown) [IV-409, 3-(4-(3-(2-Chloro-1H-imidazol-4-yl)piperidin-1-yl)pyrimidin-2-yl)-6-(trifluoromethyl)imidazo[1,2-a]pyrazine]",
,,0.1 to 1,> 5,"CS(=O)(=O)N1C2CCC1CN(c1ccnc(-c3cnc4cnc(C(F)F)cn34)n1)C2 [IV-126, 6-(Difluoromethyl)-3-(4-(8-(methylsulfonyl)-3,8-diazabicyclo[3.2.1]octan-3-yl)pyrimidin-2-yl)imidazo[1,2-a]pyrazine]",
,,0.01 to 0.1,> 5,"NC(=O)c1cn2c(-c3nccc(N4CCOC(c5cn[nH]c5)C4)n3)cnc2cn1 (stereo not shown) [IV-38, 3-(4-(2-(1H-Pyrazol-4-yl)morpholino)pyrimidin-2-yl)imidazo[1,2-a]pyrazine-6-carboxamide]",
,,0.1 to 1,> 5,"FC(F)(F)c1cn2c(-c3nccc(N4CCCOCC4)n3)cnc2cn1 [IV-427, 4-(2-(6-(Trifluoromethyl)imidazo[1,2-a]pyrazin-3-yl)pyrimidin-4-yl)-1,4-oxazepane]",
,,< 0.01,< 0.5,"C[C@H]1[C@@H](c2cn[nH]c2)N(C)CCN1c1ccnc(-c2cnc3cnc(Br)cn23)n1 (relative stereo) [IV-392, Cis-6-Bromo-3-(4-(2,4-dimethyl-3-(1H-pyrazol-4-yl)piperazin-1-yl)pyrimidin-2-yl)imidazo[1,2-a]pyrazine]",
,,0.1 to 1,> 5,"NS(=O)(=O)C1CCCN(c2ccnc(-c3cnc4cnc(C(F)F)cn34)n2)C1 (stereo not shown) [IV-177, 1-(2-(6-(Difluoromethyl)imidazo[1,2-a]pyrazin-3-yl)pyrimidin-4-yl)piperidine-3-sulfonamide]",
,,0.1 to 1,> 5,NCCC1CCCN(c2ccnc(-c3cnc4cnc(C(F)(F)F)cn34)n2)C1 (stereo not shown) [IV-488],
,,0.1 to 1,> 5,"OCC12CC1CN(c1ccnc(-c3cnc4cnc(C(F)F)cn34)n1)C2 (stereo not shown) [IV-111, (3-(2-(6-(Difluoromethyl)imidazo[1,2-a]pyrazin-3-yl)pyrimidin-4-yl)-3-azabicyclo[3.1.0]hexan-1-yl)methanol]",
,,0.01 to 0.1,0.5 to 5,"C[C@@H]1CN(c2ccnc(-c3cnc4cnc(C(F)(F)F)cn34)n2)C[C@@H](c2cn[nH]c2)O1 (racemic) [IV-11, Trans-2-Methyl-6-(1H-pyrazol-4-yl)-4-(2-(6-(trifluoromethyl)imidazo[1,2-a]pyrazin-3-yl)pyrimidin-4-yl)morpholine]",
,,0.1 to 1,> 5,"CC1CN(c2nccc(-c3cnc4cnc(Cl)cn34)n2)C(C)C(c2cn[nH]c2)N1 (single isomer, unassigned) [IV-408, 6-Chloro-3-(2-(2,5-dimethyl-3-(1H-pyrazol-4-yl)piperazin-1-yl)pyrimidin-4-yl)imidazo[1,2-a]pyrazine]",
,,< 0.01,0.5 to 5,"CC1C(c2cn[nH]c2)NCCN1c1ccnc(-c2cnc3cnc(C(F)(F)F)cn23)n1 (single isomer, unassigned) [IV-358, 3-(4-(2-Methyl-3-(1H-pyrazol-4-yl)piperazin-1-yl)pyrimidin-2-yl)-6-(trifluoromethyl)imidazo[1,2-a]pyrazine]",
,,< 0.01,< 0.5,"Brc1cn2c(-c3nccc(N4CCOC(c5cn[nH]c5)C4)n3)cnc2cn1 (stereo not shown) [IV-19, 4-(2-(6-Bromoimidazo[1,2-a]pyrazin-3-yl)pyrimidin-4-yl)-2-(1H-pyrazol-4-yl)morpholine]",
,,< 0.01,< 0.5,"CCN1CCN(c2ccnc(-c3cnc4cnc(Br)cn34)n2)[C@@H](C)[C@H]1c1cn[nH]c1 (single isomer, unassigned) [IV-402, Cis-6-Bromo-3-(4-(4-ethyl-2-methyl-3-(1H-pyrazol-4-yl)piperazin-1-yl)pyrimidin-2-yl)imidazo[1,2-a]pyrazine]",
,,0.1 to 1,> 5,"CS(=O)(=O)Nc1cccc(-c2ccnc(-c3cnc4cnc(C(F)F)cn34)n2)c1 [IV-147, N-(3-(2-(6-(Difluoromethyl)imidazo[1,2-a]pyrazin-3-yl)pyrimidin-4-yl)phenyl)methanesulfonamide]",

# More lines, now with the values behind:
SMILES,Ki (GCN2 kinase; [2]) [µM],"IC50 [1, 3] [µM]",Ki (GCN2 kinase; [4]) [µM],"IC50 [1, 5] [µM]",further results
"CN(C)S(=O)(=O)NCC1CN(c2cc(-c3cnc4ccc(C(F)F)nn34)ncn2)CCO1 (stereo not shown) [II-349, 3-((4-(6-(6-(Difluoromethyl)imidazo[1,2-b]pyridazin-3-yl)pyrimidin-4-yl)morpholin-2-yl)methyl)-1,1-dimethyl sulfuric diamide]",0.01 to 1,0.5 to 5,,,
"C[C@H]1CN(c2cc(-c3cnn4ccc(C(F)F)nc34)ncn2)C[C@@H](CNS(C)(=O)=O)C1(F)F [III-12, N-[[(3S,5S)-1-[6-[5-(Difluoromethyl)pyrazolo[1,5-a]pyrimidin-3-yl]pyrimidin-4-yl]-4,4-difluoro-5-methyl-3-piperidyl]methyl]methanesulfonamide]",,,,,"Ki (GCN2 kinase; compounds of Formula III, 4 nM GCN2 kinase): < 0.01 µM; IC50 ([1]; compounds of Formula III, U2OS cells, 10 μM borrelidin, 1 h, read-out: GCN2 Biomarker (IC50)): < 0.5 µM"
"CC1CC(CNS(C)(=O)=O)C(C)N(c2cc(-c3cnc4ccc(C(F)F)nn34)ncn2)C1 (single isomer, unassigned) [II-546, N-((1-(6-(6-(Difluoromethyl)imidazo[1,2-b]pyridazin-3-yl)pyrimidin-4-yl)-2,5-dimethylpiperidin-3-yl)methyl)methanesulfonamide]",< 0.01,< 0.5,,,
"CC(=O)N1CCN(c2cccc(-c3cnc4ccc(C(F)F)nn34)n2)CC1 [II-731, 1-(4-(6-(6-(difluoromethyl)imidazo[1,2-b]pyridazin-3-yl)pyridin-2-yl)piperazin-1-yl)ethan-1-one]",> 1,> 5,,,
"CS(=O)(=O)NCC1CCCN(c2cc(-c3cnc4ccc(C(F)F)nn34)c(Cl)cn2)C1 (stereo not shown) [II-730, N-((1-(5-Chloro-4-(6-(difluoromethyl)imidazo[1,2-b]pyridazin-3-yl)pyridin-2-yl)piperidin-3-yl)methyl)methanesulfonamide]",0.01 to 1,0.5 to 5,,,
"CS(=O)(=O)NCC1CCCN(c2cc(-c3cnc4ccc(C(F)F)nn34)cc(C(F)(F)F)n2)C1 (stereo not shown) [II-63, N-((1-(4-(6-(Difluoromethyl)imidazo[1,2-b]pyridazin-3-yl)-6-(trifluoromethyl)pyridin-2-yl)piperidin-3-yl)methyl)methanesulfonamide]",< 0.01,> 5,,,
"CC(O)c1ccc2ncc(-c3cc(N4CCO[C@H](CNS(C)(=O)=O)C4)ncn3)n2n1 (stereo partly drawn) [II-338, N-(((2S)-4-(6-(6-(1-Hydroxyethyl)imidazo[1,2-b]pyridazin-3-yl)pyrimidin-4-yl)morpholin-2-yl)methyl)methanesulfonamide trifluoroacetate]",0.01 to 1,> 5,,,
"CS(=N)(=O)CCC1CCCN(c2cc(-c3cnc4ccc(C(F)F)nn34)ccn2)C1 (stereo not shown) [II-104, (2-(1-(4-(6-(Difluoromethyl)imidazo[1,2-b]pyridazin-3-yl)pyridin-2-yl)piperidin-3-yl)ethyl)(imino)(methyl)-λ^6-sulfanone]",0.01 to 1,> 5,,,
"CS(=O)(=O)NCC1CCCN(c2cc(-c3cnc4ccc(C(F)F)nn34)cc(N3CC4(COC4)C3)n2)C1 (stereo not shown) [II-83, N-((1-(4-(6-(Difluoromethyl)imidazo[1,2-b]pyridazin-3-yl)-6-(2-oxa-6-azaspiro[3.3]heptan-6-yl)pyridin-2-yl)piperidin-3-yl)methyl)methanesulfonamide]",< 0.01,0.5 to 5,,,
"CC1C(CS(C)(=N)=O)CCCN1c1cc(-c2cnc3ccc(C(F)F)nn23)ncn1 (stereo not shown) [II-487, ((1-(6-(6-(Difluoromethyl)imidazo[1,2-b]pyridazin-3-yl)pyrimidin-4-yl)-2-methylpiperidin-3-yl)methyl)(imino)(methyl)-λ^6-sulfanone]",0.01 to 1,< 0.5,,,
"NC(=O)C1CCCN(c2cc(-c3cnc4ccc(C(F)F)nn34)ncn2)C1 (stereo not shown) [II-378, 1-(6-(6-(Difluoromethyl)imidazo[1,2-b]pyridazin-3-yl)pyrimidin-4-yl)piperidine-3-carboxamide]",0.01 to 1,0.5 to 5,,,

# — US10988477B2 (Merck Patent GmbH, priority 2018, dated 2021)
